± gives the expanded uncertainty stated by the source.
Assay: molar heat capacity at constant volume; xn = mol fraction of the nth substance listed
Conditions: x1 = 0.2607

## N [ammonia] + O
597.59 K, Fluid (supercritical or subcritical phases), Mass density=342.18 kg/m3, isochoric heat capacity
  molar heat capacity at constant volume: 106.69 ± 4.3 J/K/mol
597.6 K, Fluid (supercritical or subcritical phases), Mass density=160.07 kg/m3, isochoric heat capacity
  molar heat capacity at constant volume: 66.86 ± 2.7 J/K/mol
597.67 K, Fluid (supercritical or subcritical phases), Mass density=342.18 kg/m3, isochoric heat capacity
  molar heat capacity at constant volume: 101.08 ± 4 J/K/mol
597.68 K, Fluid (supercritical or subcritical phases), Mass density=376.89 kg/m3, isochoric heat capacity
  molar heat capacity at constant volume: 88.28 ± 3.5 J/K/mol
597.69 K, Fluid (supercritical or subcritical phases), Mass density=160.07 kg/m3, isochoric heat capacity
  molar heat capacity at constant volume: 65.49 ± 2.6 J/K/mol
597.76 K, Fluid (supercritical or subcritical phases), Mass density=342.18 kg/m3, isochoric heat capacity
  molar heat capacity at constant volume: 93.62 ± 3.7 J/K/mol
597.85 K, Fluid (supercritical or subcritical phases), Mass density=342.18 kg/m3, isochoric heat capacity
  molar heat capacity at constant volume: 99.13 ± 4 J/K/mol
597.93 K, Fluid (supercritical or subcritical phases), Mass density=342.18 kg/m3, isochoric heat capacity
  molar heat capacity at constant volume: 94.33 ± 3.8 J/K/mol
597.93 K, Fluid (supercritical or subcritical phases), Mass density=376.89 kg/m3, isochoric heat capacity
  molar heat capacity at constant volume: 82.42 ± 3.3 J/K/mol
598.02 K, Fluid (supercritical or subcritical phases), Mass density=342.18 kg/m3, isochoric heat capacity
  molar heat capacity at constant volume: 93.02 ± 3.7 J/K/mol
598.28 K, Fluid (supercritical or subcritical phases), Mass density=376.89 kg/m3, isochoric heat capacity
  molar heat capacity at constant volume: 83.59 ± 3.3 J/K/mol
598.33 K, Fluid (supercritical or subcritical phases), Mass density=329 kg/m3, isochoric heat capacity
  molar heat capacity at constant volume: 117.38 ± 4.8 J/K/mol
598.33 K, Liquid, Isochoric heat capacity
  molar heat capacity at constant volume: 117.38 ± 4.7 J/K/mol
598.45 K, Fluid (supercritical or subcritical phases), Mass density=329 kg/m3, isochoric heat capacity
  molar heat capacity at constant volume: 113.21 ± 4.6 J/K/mol
598.54 K, Fluid (supercritical or subcritical phases), Mass density=329 kg/m3, isochoric heat capacity
  molar heat capacity at constant volume: 109.57 ± 4.4 J/K/mol
598.71 K, Fluid (supercritical or subcritical phases), Mass density=329 kg/m3, isochoric heat capacity
  molar heat capacity at constant volume: 102.77 ± 4.1 J/K/mol
598.96 K, Fluid (supercritical or subcritical phases), Mass density=320.33 kg/m3, isochoric heat capacity
  molar heat capacity at constant volume: 120.79 ± 4.8 J/K/mol
598.96 K, Liquid, Isochoric heat capacity
  molar heat capacity at constant volume: 120.79 ± 4.8 J/K/mol
598.97 K, Fluid (supercritical or subcritical phases), Mass density=376.89 kg/m3, isochoric heat capacity
  molar heat capacity at constant volume: 81.57 ± 3.3 J/K/mol
598.98 K, Fluid (supercritical or subcritical phases), Mass density=160.07 kg/m3, isochoric heat capacity
  molar heat capacity at constant volume: 58.27 ± 2.3 J/K/mol
599.05 K, Fluid (supercritical or subcritical phases), Mass density=320.33 kg/m3, isochoric heat capacity
  molar heat capacity at constant volume: 119.07 ± 4.8 J/K/mol
599.05 K, Fluid (supercritical or subcritical phases), Mass density=329 kg/m3, isochoric heat capacity
  molar heat capacity at constant volume: 107.4 ± 4.3 J/K/mol
599.12 K, Fluid (supercritical or subcritical phases), Mass density=160.07 kg/m3, isochoric heat capacity
  molar heat capacity at constant volume: 56.88 ± 2.3 J/K/mol
599.14 K, Fluid (supercritical or subcritical phases), Mass density=320.33 kg/m3, isochoric heat capacity
  molar heat capacity at constant volume: 116.6 ± 4.7 J/K/mol
599.22 K, Fluid (supercritical or subcritical phases), Mass density=320.33 kg/m3, isochoric heat capacity
  molar heat capacity at constant volume: 116.48 ± 4.7 J/K/mol
599.22 K, Fluid (supercritical or subcritical phases), Mass density=329 kg/m3, isochoric heat capacity
  molar heat capacity at constant volume: 100.28 ± 4 J/K/mol
599.24 K, Fluid (supercritical or subcritical phases), Mass density=160.07 kg/m3, isochoric heat capacity
  molar heat capacity at constant volume: 59.53 ± 2.4 J/K/mol
599.28 K, Fluid (supercritical or subcritical phases), Mass density=160.07 kg/m3, isochoric heat capacity
  molar heat capacity at constant volume: 57.43 ± 2.3 J/K/mol
599.31 K, Fluid (supercritical or subcritical phases), Mass density=320.33 kg/m3, isochoric heat capacity
  molar heat capacity at constant volume: 114.22 ± 4.6 J/K/mol
599.31 K, Fluid (supercritical or subcritical phases), Mass density=329 kg/m3, isochoric heat capacity
  molar heat capacity at constant volume: 97.19 ± 4 J/K/mol
599.31 K, Fluid (supercritical or subcritical phases), Mass density=456.58 kg/m3, isochoric heat capacity
  molar heat capacity at constant volume: 67.32 ± 2.7 J/K/mol
599.39 K, Fluid (supercritical or subcritical phases), Mass density=320.33 kg/m3, isochoric heat capacity
  molar heat capacity at constant volume: 116.94 ± 4.7 J/K/mol
599.42 K, Fluid (supercritical or subcritical phases), Mass density=312.91 kg/m3, isochoric heat capacity
  molar heat capacity at constant volume: 124.13 ± 5.3 J/K/mol
599.42 K, Liquid, Isochoric heat capacity
  molar heat capacity at constant volume: 124.13 ± 5 J/K/mol
599.48 K, Fluid (supercritical or subcritical phases), Mass density=312.91 kg/m3, isochoric heat capacity
  molar heat capacity at constant volume: 116.5 ± 4.8 J/K/mol
599.48 K, Fluid (supercritical or subcritical phases), Mass density=456.58 kg/m3, isochoric heat capacity
  molar heat capacity at constant volume: 66.88 ± 2.7 J/K/mol
599.57 K, Fluid (supercritical or subcritical phases), Mass density=311.19 kg/m3, isochoric heat capacity
  molar heat capacity at constant volume: 125.38 ± 5.1 J/K/mol
599.57 K, Fluid (supercritical or subcritical phases), Mass density=312.91 kg/m3, isochoric heat capacity
  molar heat capacity at constant volume: 107.92 ± 4.4 J/K/mol
599.57 K, Liquid, Isochoric heat capacity
  molar heat capacity at constant volume: 125.38 ± 5 J/K/mol
599.63 K, Fluid (supercritical or subcritical phases), Mass density=311.19 kg/m3, isochoric heat capacity
  molar heat capacity at constant volume: 116.92 ± 4.7 J/K/mol
599.65 K, Fluid (supercritical or subcritical phases), Mass density=312.91 kg/m3, isochoric heat capacity
  molar heat capacity at constant volume: 98.79 ± 4.1 J/K/mol
599.65 K, Fluid (supercritical or subcritical phases), Mass density=456.58 kg/m3, isochoric heat capacity
  molar heat capacity at constant volume: 66.45 ± 2.7 J/K/mol
599.67 K, Fluid (supercritical or subcritical phases), Mass density=309.95 kg/m3, isochoric heat capacity
  molar heat capacity at constant volume: 126.26 ± 5.3 J/K/mol
599.67 K, Liquid, Isochoric heat capacity
  molar heat capacity at constant volume: 126.26 ± 5 J/K/mol
599.74 K, Fluid (supercritical or subcritical phases), Mass density=309.95 kg/m3, isochoric heat capacity
  molar heat capacity at constant volume: 122.91 ± 5.2 J/K/mol
599.74 K, Fluid (supercritical or subcritical phases), Mass density=311.19 kg/m3, isochoric heat capacity
  molar heat capacity at constant volume: 119.75 ± 5 J/K/mol
599.74 K, Fluid (supercritical or subcritical phases), Mass density=312.91 kg/m3, isochoric heat capacity
  molar heat capacity at constant volume: 95.52 ± 4 J/K/mol
599.78 K, Fluid (supercritical or subcritical phases), Mass density=308.35 kg/m3, isochoric heat capacity
  molar heat capacity at constant volume: 124.13 ± 5.2 J/K/mol
599.78 K, Fluid (supercritical or subcritical phases), Mass density=309.95 kg/m3, isochoric heat capacity
  molar heat capacity at constant volume: 120.4 ± 4.8 J/K/mol
599.78 K, Liquid, Isochoric heat capacity
  molar heat capacity at constant volume: 124.13 ± 5 J/K/mol
599.82 K, Fluid (supercritical or subcritical phases), Mass density=309.95 kg/m3, isochoric heat capacity
  molar heat capacity at constant volume: 110.51 ± 4.5 J/K/mol
599.82 K, Fluid (supercritical or subcritical phases), Mass density=311.19 kg/m3, isochoric heat capacity
  molar heat capacity at constant volume: 114.13 ± 4.7 J/K/mol
599.82 K, Fluid (supercritical or subcritical phases), Mass density=456.58 kg/m3, isochoric heat capacity
  molar heat capacity at constant volume: 66.86 ± 2.7 J/K/mol
599.89 K, Fluid (supercritical or subcritical phases), Mass density=307.35 kg/m3, isochoric heat capacity
  molar heat capacity at constant volume: 121.11 ± 5.1 J/K/mol
599.89 K, Liquid, Isochoric heat capacity
  molar heat capacity at constant volume: 121.11 ± 4.8 J/K/mol
599.91 K, Fluid (supercritical or subcritical phases), Mass density=308.35 kg/m3, isochoric heat capacity
  molar heat capacity at constant volume: 117.6 ± 4.9 J/K/mol
599.91 K, Fluid (supercritical or subcritical phases), Mass density=309.95 kg/m3, isochoric heat capacity
  molar heat capacity at constant volume: 104.19 ± 4.2 J/K/mol
599.99 K, Fluid (supercritical or subcritical phases), Mass density=307.35 kg/m3, isochoric heat capacity
  molar heat capacity at constant volume: 117.17 ± 5 J/K/mol
599.99 K, Fluid (supercritical or subcritical phases), Mass density=308.35 kg/m3, isochoric heat capacity
  molar heat capacity at constant volume: 105.88 ± 4.3 J/K/mol
599.99 K, Fluid (supercritical or subcritical phases), Mass density=309.95 kg/m3, isochoric heat capacity
  molar heat capacity at constant volume: 102.57 ± 4.2 J/K/mol
599.99 K, Fluid (supercritical or subcritical phases), Mass density=312.91 kg/m3, isochoric heat capacity
  molar heat capacity at constant volume: 91.51 ± 3.7 J/K/mol
600.02 K, Fluid (supercritical or subcritical phases), Mass density=305.44 kg/m3, isochoric heat capacity
  molar heat capacity at constant volume: 119.52 ± 4.9 J/K/mol
600.02 K, Liquid, Isochoric heat capacity
  molar heat capacity at constant volume: 119.52 ± 4.8 J/K/mol
600.08 K, Fluid (supercritical or subcritical phases), Mass density=305.44 kg/m3, isochoric heat capacity
  molar heat capacity at constant volume: 116.14 ± 4.8 J/K/mol
600.08 K, Fluid (supercritical or subcritical phases), Mass density=307.35 kg/m3, isochoric heat capacity
  molar heat capacity at constant volume: 103.34 ± 4.5 J/K/mol
600.08 K, Fluid (supercritical or subcritical phases), Mass density=308.35 kg/m3, isochoric heat capacity
  molar heat capacity at constant volume: 100.97 ± 4.1 J/K/mol
600.16 K, Fluid (supercritical or subcritical phases), Mass density=307.35 kg/m3, isochoric heat capacity
  molar heat capacity at constant volume: 101.06 ± 4.3 J/K/mol
600.17 K, Fluid (supercritical or subcritical phases), Mass density=303.47 kg/m3, isochoric heat capacity
  molar heat capacity at constant volume: 117.74 ± 4.8 J/K/mol
600.17 K, Fluid (supercritical or subcritical phases), Mass density=305.44 kg/m3, isochoric heat capacity
  molar heat capacity at constant volume: 107.85 ± 4.6 J/K/mol
600.17 K, Fluid (supercritical or subcritical phases), Mass density=308.35 kg/m3, isochoric heat capacity
  molar heat capacity at constant volume: 93.64 ± 3.8 J/K/mol
600.17 K, Liquid, Isochoric heat capacity
  molar heat capacity at constant volume: 118.63 ± 4.7 J/K/mol
600.25 K, Fluid (supercritical or subcritical phases), Mass density=303.47 kg/m3, isochoric heat capacity
  molar heat capacity at constant volume: 110.49 ± 4.5 J/K/mol
600.25 K, Fluid (supercritical or subcritical phases), Mass density=305.44 kg/m3, isochoric heat capacity
  molar heat capacity at constant volume: 102.54 ± 4.1 J/K/mol
600.29 K, Fluid (supercritical or subcritical phases), Mass density=301.94 kg/m3, isochoric heat capacity
  molar heat capacity at constant volume: 117.56 ± 4.8 J/K/mol
600.29 K, Liquid, Isochoric heat capacity
  molar heat capacity at constant volume: 117.56 ± 4.7 J/K/mol
600.33 K, Fluid (supercritical or subcritical phases), Mass density=301.94 kg/m3, isochoric heat capacity
  molar heat capacity at constant volume: 111.7 ± 4.6 J/K/mol
600.34 K, Fluid (supercritical or subcritical phases), Mass density=303.47 kg/m3, isochoric heat capacity
  molar heat capacity at constant volume: 104.01 ± 4.3 J/K/mol
600.34 K, Fluid (supercritical or subcritical phases), Mass density=305.44 kg/m3, isochoric heat capacity
  molar heat capacity at constant volume: 105.13 ± 4.2 J/K/mol
600.35 K, Fluid (supercritical or subcritical phases), Mass density=309.95 kg/m3, isochoric heat capacity
  molar heat capacity at constant volume: 100.02 ± 4 J/K/mol
600.42 K, Fluid (supercritical or subcritical phases), Mass density=303.47 kg/m3, isochoric heat capacity
  molar heat capacity at constant volume: 98.88 ± 4.1 J/K/mol
600.42 K, Fluid (supercritical or subcritical phases), Mass density=305.44 kg/m3, isochoric heat capacity
  molar heat capacity at constant volume: 97.9 ± 4 J/K/mol

Source: the NIST ThermoML archive (doi:10.1007/s10765-009-0602-6)
